As usually defined, the melting point is the temperature of the solid-liquid transition. As usually defined, the EC50 is the concentration needed to bring the measured effect to its halfway point. As usually defined, the CC50 is the concentration giving 50% cytotoxicity.

The values below come from patent US10206902B2, “Mono- or di-substituted indoles as dengue viral replication inhibitors” (priority 2014, dated 2019).

Molecules are shown by their SMILES.

One data set deals with DENV-2 16681 strain. Description: DENV-2 antiviral assay (eGFP-labelled virus in Vero cells). The format is cell-based, Dengue virus. As to conditions: DENV-2 16681 eGFP, MOI 0.5, 3 days. The procedure: The antiviral activity of all the compounds of the invention was tested against DENV-2 16681 strain which was labeled with enhanced green fluorescent protein (eGPF). The culture medium consists of minimal essential medium supplemented with 2% of heat-inactivated fetal calf serum, 0.04% gentamycin (50 mg/mL) and 2 mM of L-glutamine. Vero cells, obtained from ECACC, were suspended in culture medium and 25 μL was added to 384-well plates (2500 cells/well), which already contain the antiviral compounds. Typically, these plates contain a 4-fold serial dilution of 9 dilution steps of the test compound at 200 times the final concentration in 100% DMSO (200 nL). In addition, each compound concentration is tested in quadruplicate (final concentration range: 25 μM-0.00038 μM). Finally, each plate contains wells which are assigned as virus controls (containing cells and virus in the absence of compound), cell controls (containing cells in the absence of virus and compound) and medium controls (containing medium in the absence of cells, virus and compounds). To the wells assigned as medium control, 25 μL of culture medium was added instead of Vero cells. Once the cells were added to the plates, the plates were incubated for 30 minutes at room temperature to allow the cells to distribute evenly within the wells. Next, the plates were incubated in a fully humidified incubator (37° C., 5% CO2) until the next day. Then, DENV-2 strain 16681, labeled with eGFP, was added at a multiplicity of infection (MOI) of 0.5. Therefore, 15 μL of virus suspension was added to all the wells containing test compound and to the wells assigned as virus control. In parallel, 15 μL of culture medium was added to the medium and cell controls. Next, the plates were incubated for 3 days in a fully humidified incubator (37° C., 5% CO2). At the day of the read out, the eGFP fluorescence was measured using an automated fluorescence microscope at 488 nm (blue laser). Using an in-house LIMS system, inhibition dose response curves for each compound were calculated and the half maximal effective concentration (EC50) was determined. Therefore, the percent inhibition (I) for every test concentration is calculated using the following formula: I=100*(ST−SCC)/(SVC−SCC); ST, SCC and SVC are the amount of eGFP signal in the test compound, cell control and virus control wells, respectively. The EC50 represents the concentration of a compound at which the virus replication is inhibited with 50%, as measured by a 50% reduction of the eGFP fluorescent intensity compared to the virus control. The EC50 is calculated using linear interpolation (Table 1).

A further data set is described as follows: in vitro. Conditions: African green monkey, CC50. The format is cell-based. The procedure: (§1) In parallel, the toxicity of the compounds was assessed on the same plates. Once the read-out for the eGFP signal was done, 10 μL of resazurin, a cell viability stain, was added to all wells of the 384-well plates. The resazurin assay is based on the reduction of the blue resazurin by NADH, produced by the cells, into the highly fluorescent product, resorufin. The formation of pink fluorescent resorufin is directly related to the number of viable cells in the well. The plates were incubated for an additional 5 hours in a fully humidified incubator (37° C., 5% CO2). Next, the plates were measured on an Infinite reader (Tecan) using an excitation wavelength of 530 nm. The half maximal cytotoxic concentration (CO50) was also determined, defined as the concentration required to reduce the resazurin conversion by 50% compared to that of the cell control wells (Table 1). Finally, the selectivity index (SI) was determined for the compounds, which was calculated as followed: SI=CC50/EC50.

The test system of another data set is Vero cells. In words: in vitro. The format is cell-based. Conditions: African green monkey. The procedure:
as §1

In the case of `COc1cc(NC(C(=O)c2c[nH]c3c(C)cc(F)cc23)c2ccc(F)cc2OC)cc(OCCO)c1` (racemic) [Compound 9, 2-(4-fluoro-2-methoxyphenyl)-1-(5-fluoro-7-methyl-1H-indol-3-yl)-2-((3-(2-hydroxyethoxy)-5-methoxyphenyl)amino)ethanone], the melting point came out at 179 °C. The same molecule showed an EC50 in the data set with DENV-2 16681 strain (Dengue virus, DENV2, Vero, 72 h) of 0.0094 µM. This molecule also yielded a CC50 in the data set “in vitro” of 7.5 µM.

In the data set with DENV-2 16681 strain, `COc1cc(NC(C(=O)c2c[nH]c3cc(OC)c(F)cc23)c2ccc(F)cc2OC)cc(OCCO)c1` (single isomer, unassigned) [Compound 7B, 2-(4-fluoro-2-methoxyphenyl)-1-(5-fluoro-6-methoxy-1H-indol-3-yl)-2-((3-(2-hydroxyethoxy)-5-methoxyphenyl)amino)ethanone] had a half-maximal effective concentration (EC50) of 0.54 µM. Also, the CC50 in the data set with Vero cells amounted to 14 µM.
